Measurements: US10597388B2, “Pyridazinone herbicides” (FMC CORPORATION, priority 2014, dated 2020)

Tests used:
Assay in all cases: Test D controlled growth environment herbicide test, pre- and postemergence
Type in all cases: in vivo
[1] = system: foxtail, green (green foxtail, Setaria viridis)
Method in brief: (§1)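 Species sown in silt loam and sprayed preemergence, or grown in peat-based medium to 2–18 cm (1- to 4-leaf stage) and sprayed postemergence, with compounds in non-phytotoxic solvent plus surfactant. Visual injury scored versus controls after 14–21 d in a controlled environment, 0 (no effect) to 100 (complete control).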

[2] = system: blackgrass (Alopecurus myosuroides)
Method in brief: as §1

[3] = system: barley, spring (spring barley, Hordeum vulgare)
Method in brief: as §1

[4] = system: wheat, spring (spring wheat, Triticum aestivum)
Method in brief: as §1

[5] = system: ryegrass, Italian (Italian ryegrass, Lolium multiflorum)
Method in brief: as §1

[6] = system: field poppy (Papaver rhoeas)
Method in brief: as §1

[7] = system: chamomile (scentless chamomile, Matricaria inodora)
Method in brief: as §1

[8] = system: bromegrass, downy (downy bromegrass, Bromus tectorum)
Method in brief: as §1

[9] = system: chickweed (common chickweed, Stellaria media)
Method in brief: as §1

[10] = system: barley, winter (winter barley, Hordeum vulgare)
Method in brief: as §1

[11] = system: lambsquarters (Chenopodium album)
Method in brief: as §1

[12] = system: deadnettle (henbit deadnettle, Lamium amplexicaule)
Method in brief: as §1

[13] = system: wheat, winter (winter wheat, Triticum aestivum)
Method in brief: as §1

[14] = Postemergence, 31 g ai/ha, scale 0 to 100 (0 no effect, 100 complete control)
[15] = Postemergence, 125 g ai/ha, visual rating on scale 0 (no effect) to 100 (complete control), 14 to 21 d
[16] = Postemergence, 250 g ai/ha, scale 0 to 100 (0 no effect, 100 complete control)
[17] = Preemergence, 62 g ai/ha, scale 0 to 100 (0 no effect, 100 complete control)
[18] = Preemergence, 125 g ai/ha, scale 0 to 100 (0 no effect, 100 complete control)
[19] = Preemergence, 250 g ai/ha, scale 0 to 100 (0 no effect, 100 complete control)
[20] = postemergence, 62 g ai/ha, scale 0 to 100, 0 no effect, 100 complete control

Cc1ccc2ccc(C)c(-c3c(O)c(C)nn(C)c3=O)c2c1 [Compound 60]
Foxtail, Green plant response rating [1, 14]: 35 | Plant response rating, Foxtail, Green [1, 15]: 65 | Plant response rating, Foxtail, Green [1, 16]: 75 | Plant response rating (scale of 0 to 100), Foxtail, Green ([1]; Preemergence, 31 g ai/ha): 70 | Plant response rating, Foxtail, Green [1, 17]: 80 | Plant response rating, Foxtail, Green [1, 18]: 95 | Plant response rating, Foxtail, Green [1, 19]: 100 | Plant response rating, Foxtail, Green [1, 20]: 40 | Blackgrass plant response rating [2, 14]: 75 | Plant response rating, Blackgrass [2, 15]: 85 | Plant response rating, Blackgrass [2, 16]: 90 | Plant response rating (scale of 0 to 100), Blackgrass ([2]; Preemergence, 31 g ai/ha): 90 | Plant response rating, Blackgrass [2, 17]: 95 | Plant response rating, Blackgrass [2, 18]: 100 | Plant response rating, Blackgrass [2, 19]: 100 | Plant response rating, Blackgrass [2, 20]: 80 | Barley, Spring plant response rating [3, 14]: 15 | Plant response rating, Barley, Spring [3, 15]: 40 | Plant response rating, Barley, Spring [3, 16]: 50 | Plant response rating (scale of 0 to 100), Barley, Spring ([3]; Preemergence, 31 g ai/ha): 5 | Plant response rating, Barley, Spring [3, 17]: 10 | Plant response rating, Barley, Spring [3, 18]: 45 | Plant response rating, Barley, Spring [3, 19]: 60 | Plant response rating, Barley, Spring [3, 20]: 25 | Wheat, Spring plant response rating [4, 14]: 30 | Plant response rating, Wheat, Spring [4, 15]: 40 | Plant response rating, Wheat, Spring [4, 16]: 55 | Plant response rating (scale of 0 to 100), Wheat, Spring ([4]; Preemergence, 31 g ai/ha): 35 | Plant response rating, Wheat, Spring [4, 17]: 55 | Plant response rating, Wheat, Spring [4, 18]: 65 | Plant response rating, Wheat, Spring [4, 19]: 75 | Plant response rating, Wheat, Spring [4, 20]: 35 | Ryegrass, Italian plant response rating [5, 14]: 80 | Plant response rating, Ryegrass, Italian [5, 15]: 90 | Plant response rating, Ryegrass, Italian [5, 16]: 95 | Plant response rating (scale of 0 to 100), Ryegrass, Italian ([5]; Preemergence, 31 g ai/ha): 100 | Plant response rating, Ryegrass, Italian [5, 17]: 100 | Plant response rating, Ryegrass, Italian [5, 18]: 100 | Plant response rating, Ryegrass, Italian [5, 19]: 100 | Plant response rating, Ryegrass, Italian [5, 20]: 90 | Field Poppy plant response rating [6, 14]: 60 | Plant response rating, Field Poppy [6, 15]: 85 | Plant response rating, Field Poppy [6, 16]: 100 | Plant response rating (scale of 0 to 100), Field Poppy ([6]; Preemergence, 31 g ai/ha): 75 | Plant response rating, Field Poppy [6, 17]: 100 | Plant response rating, Field Poppy [6, 18]: 100 | Plant response rating, Field Poppy [6, 19]: 100 | Plant response rating, Field Poppy [6, 20]: 75 | Chamomile plant response rating [7, 14]: 75 | Plant response rating, Chamomile [7, 15]: 100 | Plant response rating, Chamomile [7, 16]: 100 | Plant response rating (scale of 0 to 100), Chamomile ([7]; Preemergence, 31 g ai/ha): 95 | Plant response rating, Chamomile [7, 17]: 100 | Plant response rating, Chamomile [7, 18]: 100 | Plant response rating, Chamomile [7, 19]: 100 | Plant response rating, Chamomile [7, 20]: 80 | Bromegrass, Downy plant response rating [8, 14]: 30 | Plant response rating, Bromegrass, Downy [8, 15]: 65 | Plant response rating, Bromegrass, Downy [8, 16]: 80 | Plant response rating (scale of 0 to 100), Bromegrass, Downy ([8]; Preemergence, 31 g ai/ha): 60 | Plant response rating, Bromegrass, Downy [8, 17]: 90 | Plant response rating, Bromegrass, Downy [8, 18]: 95 | Plant response rating, Bromegrass, Downy [8, 19]: 98 | Plant response rating, Bromegrass, Downy [8, 20]: 55 | Chickweed plant response rating [9, 14]: 85 | Plant response rating, Chickweed [9, 15]: 100 | Plant response rating, Chickweed [9, 16]: 100 | Plant response rating (scale of 0 to 100), Chickweed ([9]; Preemergence, 31 g ai/ha): 95 | Plant response rating, Chickweed [9, 17]: 100 | Plant response rating, Chickweed [9, 18]: 100 | Plant response rating, Chickweed [9, 19]: 100 | Plant response rating, Chickweed [9, 20]: 100 | Barley, Winter plant response rating [10, 14]: 10 | Plant response rating, Barley, Winter [10, 15]: 40 | Plant response rating, Barley, Winter [10, 16]: 50 | Plant response rating (scale of 0 to 100), Barley, Winter ([10]; Preemergence, 31 g ai/ha): 15 | Plant response rating, Barley, Winter [10, 17]: 30 | Plant response rating, Barley, Winter [10, 18]: 50 | Plant response rating, Barley, Winter [10, 19]: 65 | Plant response rating, Barley, Winter [10, 20]: 25 | Lambsquarters plant response rating [11, 14]: 80 | Plant response rating, Lambsquarters [11, 15]: 80 | Plant response rating, Lambsquarters [11, 16]: 80 | Plant response rating (scale of 0 to 100), Lambsquarters ([11]; Preemergence, 31 g ai/ha): 100 | Plant response rating, Lambsquarters [11, 17]: 100 | Plant response rating, Lambsquarters [11, 18]: 100 | Plant response rating, Lambsquarters [11, 19]: 100 | Plant response rating, Lambsquarters [11, 20]: 80 | Deadnettle plant response rating [12, 14]: 70 | Plant response rating, Deadnettle [12, 15]: 95 | Plant response rating, Deadnettle [12, 16]: 95 | Plant response rating (scale of 0 to 100), Deadnettle ([12]; Preemergence, 31 g ai/ha): 35 | Plant response rating, Deadnettle [12, 17]: 90 | Plant response rating, Deadnettle [12, 18]: 85 | Plant response rating, Deadnettle [12, 19]: 100 | Plant response rating, Deadnettle [12, 20]: 75 | Wheat, Winter plant response rating [13, 14]: 25 | Plant response rating, Wheat, Winter [13, 15]: 35 | Plant response rating, Wheat, Winter [13, 16]: 40 | Plant response rating (scale of 0 to 100), Wheat, Winter ([13]; Preemergence, 31 g ai/ha): 10 | Plant response rating, Wheat, Winter [13, 17]: 35 | Plant response rating, Wheat, Winter [13, 18]: 55 | Plant response rating, Wheat, Winter [13, 19]: 55 | Plant response rating, Wheat, Winter [13, 20]: 30
